Assay results reported in the RepoRT retention time repository (doi:10.1007/s00216-021-03828-0).
Counter-ions that a name gives are not always drawn.

What was measured:
Conditions in all cases: stereoisomer not certain
[1] = RP, Merck Supelco Ascentis Express C18, 100 × 2.1 mm, 2 µm, 40 °C, 0.2 mL/min, estimated dead time 1.1 min; A: water + 0.1% formic acid, pH 3; B: acetonitrile + 0.1% formic acid, pH 3; gradient (min/%B) 0/5 2/5 17/99.9 20/99.9
[2] = RP, Merck Supelco Ascentis Express C18, 100 × 2.1 mm, 2 µm, 40 °C, 0.4 mL/min, estimated dead time 0.55 min; A: water + 0.1% formic acid, pH 3; B: acetonitrile + 0.1% formic acid, pH 3; gradient (min/%B) 0/5 2/5 17/99.9 20/99.9
[3] = RP, Merck Supelco Ascentis Express C18, 100 × 2.1 mm, 2 µm, 40 °C, 0.35 mL/min, estimated dead time 0.63 min; A: water + 0.1% formic acid, pH 3; B: acetonitrile + 0.1% formic acid, pH 3; gradient (min/%B) 0/5 2/5 17/99.9 20/99.9
[4] = RP, Merck Supelco Ascentis Express C18, 100 × 2.1 mm, 2 µm, 40 °C, 0.2 mL/min, estimated dead time 1.1 min; A: water + 0.1% formic acid, pH 3; B: acetonitrile + 0.1% formic acid, pH 3; gradient (min/%B) 0/5 2/5 17/99.9 20/99.9; remark: listed apart in the source
[5] = RP, Merck Supelco Ascentis Express C18, 100 × 2.1 mm, 2 µm, 40 °C, 0.4 mL/min, estimated dead time 0.55 min; A: water + 0.1% formic acid, pH 3; B: acetonitrile + 0.1% formic acid, pH 3; gradient (min/%B) 0/5 2/5 17/99.9 20/99.9; remark: listed apart in the source
[6] = RP, Merck Supelco Ascentis Express C18, 100 × 2.1 mm, 2 µm, 39 °C, 0.3 mL/min, estimated dead time 0.73 min; A: water + 0.1% formic acid, pH 3; B: acetonitrile + 0.1% formic acid, pH 3; gradient (min/%B) 0/5 2/5 17/99.9 20/99.9
[7] = RP, Merck Supelco Ascentis Express C18, 100 × 2.1 mm, 2 µm, 40 °C, 0.25 mL/min, estimated dead time 0.88 min; A: water + 0.1% formic acid, pH 3; B: acetonitrile + 0.1% formic acid, pH 3; gradient (min/%B) 0/5 2/5 17/99.9 20/99.9

LC retention time [1] | LC retention time [2] | LC retention time [3] | LC retention time [4] | LC retention time [5] | LC retention time [6] | LC retention time [7] | Structure (SMILES)
 | 0.87 min | 0.997 min |  |  |  |  | OCC(O)C(O)CO (stereo not given) [ERYTHRITOL]
5.99 min | 3.63 min | 3.91 min |  |  |  |  | COC(=O)c1ccc(O)c(OC)c1 [METHYL VANILLATE]
 | 1.52 min | 1.78 min |  | 1.55 min |  | 3.05 min | Oc1ccccc1O [PYROCATECHOL]
 | 1.07 min | 1.21 min |  |  |  |  | COc1cc(C(O)CO)ccc1O (stereo not given) [4-HYDROXY-3-METHOXYPHENYLGLYCOL]
5.47 min | 3.59 min | 3.94 min |  |  |  |  | O=Cc1cccc(O)c1 [3-HYDROXYBENZALDEHYDE]
1.36 min |  | 0.757 min | 1.37 min | 0.667 min | 0.89 min | 1.09 min | Nc1nc2c(ncn2C2OC(CO)C(O)C2O)c(=O)[nH]1 (stereo not given) [GUANOSINE]
1.38 min |  |  | 1.38 min |  | 0.937 min | 1.07 min | O=C(O)c1cccnc1C(=O)O [QUINOLINATE]
2.44 min | 1.14 min | 1.35 min | 2.46 min | 1.21 min |  |  | C=C(CC(=O)O)C(=O)O [ITACONATE]
4.65 min | 0.77 min | 0.88 min |  |  |  |  | CC(C)CC(=O)C(=O)O [KETOLEUCINE]
5.87 min | 3.93 min | 4.3 min |  |  |  |  | Nc1ccc(C(=O)O)cc1 [4-AMINOBENZOATE]
 | 1.05 min |  |  |  |  |  | Nc1ccccc1C(=O)CC(N)C(=O)O (stereo not given) [KYNURENINE]
1.49 min | 0.73 min | 0.827 min |  |  |  |  | O=C(O)CCC(=O)O [SUCCINATE]
 |  | 0.77 min | 1.38 min | 0.667 min | 0.883 min | 1.09 min | Nc1ncnc2c1ncn2C1CC(O)C(CO)O1 (stereo not given) [DEOXYADENOSINE]
 | 3.2 min | 3.57 min |  |  |  |  | O=S(=O)(O)Oc1c[nH]c2ccccc12 [INDOXYL SULFATE]
3.97 min | 2.02 min | 2.33 min |  |  |  |  | OCc1cccc(O)c1 [3-HYDROXYBENZYL ALCOHOL]
1.39 min | 0.663 min | 0.783 min |  |  |  |  | OCC(O)c1ccc(O)c(O)c1 (stereo not given) [3,4-DIHYDROXYPHENYLGLYCOL]
 |  |  | 2.48 min | 1.24 min | 1.62 min | 1.97 min | Cc1ccc(O)c(O)c1 [4-METHYLCATECHOL]
 |  |  | 8.6 min | 6.7 min | 7.38 min | 7.9 min | CC(O)c1ccccc1 (stereo not given) [1-PHENYLETHANOL]
1.41 min | 0.677 min | 0.79 min |  |  |  |  | O=C(O)C(O)c1ccc(O)c(O)c1 (stereo not given) [3,4 DIHYDROXYMANDELATE]
 |  |  | 1.53 min | 0.73 min | 0.947 min | 1.19 min | O=c1cccc(O)[nH]1 [2,6-DIHYDROXYPYRIDINE]
 |  |  | 7.09 min | 5.56 min | 6.16 min | 6.5 min | CC1C(=O)Nc2ccccc21 (stereo not given) [3-METHYL-2-OXINDOLE]
4.64 min | 2.54 min | 2.96 min |  |  |  |  | CCC(C)C(=O)C(=O)O (stereo not given) [3-METHYL-2-OXOVALERATE]
2.12 min | 1.04 min | 1.21 min |  |  |  |  | COc1cc(C(O)C(=O)O)ccc1O (stereo not given) [3-METHOXY-4-HYDROXYMANDELATE]

Continued, molecule first:

Structure (SMILES) | LC retention time [1] | LC retention time [2] | LC retention time [3] | LC retention time [4] | LC retention time [5] | LC retention time [6] | LC retention time [7]
COC(=O)CCCC(=O)O [MONOMETHYLGLUTARATE] | 3.99 min | 2.02 min | 2.33 min |  |  |  | 
CC(=CC(=O)O)C(=O)O [2-METHYLMALEATE] | 2.44 min | 1.16 min | 1.35 min | 2.46 min | 0.99 min |  | 
CC(=O)NC(CCC(=O)O)C(=O)O (stereo not given) [N-ACETYLGLUTAMATE] | 1.35 min |  |  | 1.36 min |  | 0.897 min | 1.06 min
c1ncc2[nH]cnc2n1 [PURINE] | 1.34 min |  | 0.757 min | 1.35 min |  |  | 1.07 min
O=C(O)CCCC(=O)C(=O)O [OXOADIPATE] | 1.48 min | 0.707 min | 0.833 min |  | 0.667 min |  | 
CCCCCCCCCCCCCCCCCCCC(=O)O [ARACHIDATE] |  | 17.9 min | 18.3 min |  |  |  | 
CCCCCCC=CCCCCCCCC(=O)[O-] [PALMITOLEATE] | 16.7 min | 14.5 min |  | 16.7 min | 14.6 min | 15.3 min | 15.9 min
CC(CCC(=O)O)C1CCC2C3CCC4CC(O)CCC4(C)C3CC(O)C12C (stereo not given) [DEOXYCHOLATE] |  |  | 10.8 min |  |  |  | 
CCCCCC=CCC=CCC=CCCCCC(=O)O [GAMMA-LINOLENATE] | 16.2 min | 14.1 min | 14.5 min |  |  |  | 
CCOC(=O)C(=O)C(C)C(=O)OCC (stereo not given) [DIETHYL 2-METHYL-3-OXOSUCCINATE] | 6.29 min |  | 4.92 min |  |  |  | 
CC1NCCc2cc(O)c(O)cc21 (stereo not given) [SALSOLINOL] | 1.44 min | 0.68 min | 0.82 min |  |  |  | 
CC(O)(CC(=O)O)C(=O)O (stereo not given) [CITRAMALATE] | 1.49 min | 0.717 min | 0.86 min |  | 0.76 min |  | 
Cc1cc2nc3c(=O)[nH]c(=O)nc-3n(CC(O)C(O)C(O)COP(=O)(O)OP(=O)(O)OCC3OC(n4cnc5c(N)ncnc54)C(O)C3O)c2cc1C (stereo not given) [FAD] | 4.67 min | 3.63 min | 3.77 min |  |  |  | 
CCCCCCCCC=CCCCCCCCCCCCC(=O)O [ERUCATE] |  | 17.8 min | 18.2 min |  |  |  | 
CCCCCCCCCC(C)=O [2-UNDECANONE] | 9.69 min | 8.13 min | 8.4 min |  |  |  | 
Nc1ccccc1C(=O)O [ANTHRANILATE] | 5.87 min | 3.93 min | 4.29 min |  |  |  | 
Cc1cn(C2CC(O)C(COP(=O)(O)OP(=O)(O)OC3OC(CO)C(O)C(O)C3O)O2)c(=O)[nH]c1=O [DTDP-D-GLUCOSE] |  | 0.667 min |  |  |  |  | 
Nc1nc2c(ncn2C2OC(COP(=O)(O)OP(=O)(O)OC3OC(CO)C(O)C(O)C3O)C(O)C2O)c(=O)[nH]1 (stereo not given) [GUANOSINE DIPHOSPHATE MANNOSE] |  |  | 0.757 min |  |  |  | 
CCCCCC=CCC=CCCCCCCCC(=O)O [LINOLEATE] | 17 min |  | 15.3 min |  | 13.1 min |  | 
Cn1cnc2c1c(=O)[nH]c(=O)n2C [THEOBROMINE] |  |  |  | 2.69 min | 1.4 min | 1.78 min | 2.12 min
NCCc1c[nH]c2ccccc12 [TRYPTAMINE] |  |  |  | 4.56 min | 2.77 min | 3.5 min | 3.97 min
CCCCCCCCCC(=O)O [DECANOATE] | 12.8 min |  |  | 12.7 min | 10.8 min | 11.5 min | 12 min
CCCCCCCCC(=O)[O-] [NONANOATE] | 11.7 min |  |  | 11.7 min | 9.85 min | 10.5 min | 11.1 min
CCCCCCC(=O)O [HEPTANOATE] | 6.69 min |  | 5.36 min |  |  |  | 
O=C1CCCCO1 [5-VALEROLACTONE] |  |  |  | 3.96 min | 2.06 min | 2.73 min | 3.24 min
CC(CCC(=O)O)C1CCC2C3C(O)CC4CC(O)CCC4(C)C3CCC12C (stereo not given) [URSODEOXYCHOLATE] | 12.2 min | 10.5 min | 10.8 min |  |  |  | 
CCCCCCCC(=O)O [CAPRYLATE] |  |  | 9.28 min | 10.7 min | 8.82 min | 9.52 min | 10 min
CC(=CCC1=C(C)C(=O)c2ccccc2C1=O)CCCC(C)CCCC(C)CCCC(C)C (stereo not given) [PHYLLOQUINONE] |  |  |  | 15.5 min | 13.3 min | 14.1 min | 14.7 min
